Laboratory results taken from patent US20040127577A1 (priority 2002, published 2004).
Where “and” joins values, the source holds several entries; their conditions need not be identical. Identical values can stand only once. Like-named read-outs stand apart in the source and are kept apart here.

Experiments:
SOD1 transgenic mice [1] = conditions: for Mean Survival: drinking water from 60 days of age, N=15
Method: (§1) Another group of 15 mice served as controls.
(§2) The drugs were administered by drinking water starting at 60 days of age. The daily dosages were calculated based on a daily water intake of 6 ml. Fresh solutions were prepared once a week with the total consumed volume measured in order to ensure a constant daily and weekly dose. […] The study was done blindly, meaning that the treatment and the preparation of the drugs were conducted by separate individuals.
The clinical condition of the mice was monitored daily starting at 40 days. The onset of clinical signs was scored by examining the mice for tremors and/or shaking of the limbs, and the position of one or both hind limbs (hanging rather than splaying out) when the mice were suspended in the air by their tail. The age of clinical onset was determined by the age (days) at which loss of splay or tremors of hind limbs were observed. Examining the mice for the loss of righting reflex determined the end stage of the disease. The mice were sacrificed if they could not right themselves within 30 seconds when placed on either side on a flat surface. This decision was made by an independent veterinarian as requested by the animal protocol. The treatment protocol was approved by the Regierungspräsident Tübingen (35/9185.81-3). The treatment and clinical evaluation were conducted by separate individuals, and thus the neurological signs for determining onset and end stage of disease were scored in a blinded manner.
(§3) Data are expressed as the mean +/−standard error of the mean (SEM). Rotarod testing and weight were compared by analysis of variance (ANOVA). Survival data were analysed by the Mantel-Cox proportional hazard model. Statistical significance was tested by one-way ANOVA followed by post-hoc Student-Newman-Keuls comparison with the SPSS-PC software program (SPSS, Chicago Ill.).

SOD1 transgenic mice [2] = conditions: mouse, in vivo
Method: as §2
(§4) Mice were observed daily (including weekends) and weighed weekly. Motor performance was assessed from 40 days of age using the rotarod apparatus to measure the night activity of the mice from 8 p.m.-8 a.m. (LMTB, Berlin). The activity of the animals was recorded individually by a computerized system and assessed daily, including weekends. For statistical evaluation, the rotarod activity was normalized to the mean activity of each animal from day 40 to day 60.
The clinical condition of the mice was monitored daily starting at 40 days. The onset of clinical signs was scored by examining the mice for tremors and/or shaking of the limbs, and the position of one or both hind limbs (hanging rather than splaying out) when the mice were suspended in the air by their tail. The age of clinical onset was determined by the age (days) at which loss of splay or tremors of hind limbs were observed. Examining the mice for the loss of righting reflex determined the end stage of the disease. […]

SOD1 transgenic mice [3] = experiment: Running wheel (rotarod) night activity of SOD1 transgenic mice; format: in vivo; design: unit not given here
Method: as §1, §2, §4, §3

Question: Which results are given for `C#CCN[C@@H]1CCc2ccccc21` [rasagiline, R(+)-N-propargyl-1-aminoindan]?
Answer: Mean Survival (SOD1 transgenic mice [1]; rasagiline 0.5 mg/kg per day): 224 days and 223.8667 days; Mean Survival (SOD1 transgenic mice [1]; rasagiline 2.0 mg/kg per day): 239.8667 days and 239.8677 days; increase of life span vs controls (SOD1 transgenic mice [1]; rasagiline 2.0 mg/kg per day, p<0.001): 29 days; signs of overt toxicity (SOD1 transgenic mice [2]): did not observe any signs of overt toxicity; running wheel activity (SOD1 transgenic mice [3]; rasagiline 0.5 mg/kg, Weeks 9-12): 10087; running wheel activity (SOD1 transgenic mice [3]; rasagiline 0.5 mg/kg, Weeks 13-16): 9037.14; running wheel activity (SOD1 transgenic mice [3]; rasagiline 0.5 mg/kg, Weeks 17-20): 8124.12; running wheel activity (SOD1 transgenic mice [3]; rasagiline 0.5 mg/kg, Weeks 21-24): 6070.08; running wheel activity (SOD1 transgenic mice [3]; rasagiline 0.5 mg/kg, Weeks 25-28): 4236.96; running wheel activity (SOD1 transgenic mice [3]; rasagiline 0.5 mg/kg, Weeks 29-36): 1196.69; running wheel activity (SOD1 transgenic mice [3]; rasagiline 2.0 mg/kg, Weeks 9-12): 11056; running wheel activity (SOD1 transgenic mice [3]; rasagiline 2.0 mg/kg, Weeks 13-16): 9999.44; running wheel activity (SOD1 transgenic mice [3]; rasagiline 2.0 mg/kg, Weeks 17-20): 8787.09; running wheel activity (SOD1 transgenic mice [3]; rasagiline 2.0 mg/kg, Weeks 21-24): 7873.22; running wheel activity (SOD1 transgenic mice [3]; rasagiline 2.0 mg/kg, Weeks 25-28): 5902.76; running wheel activity (SOD1 transgenic mice [3]; rasagiline 2.0 mg/kg, Weeks 29-36): 2147.29

Question: Which running wheel activity (SOD1 transgenic mice [3]; riluzole 30 mg/kg, Weeks 9-12) does the source give for `Nc1nc2ccc(OC(F)(F)F)cc2s1` [riluzole, 2-amino-6-trifluoromethoxy benzothiazole] here?
Answer: Its running wheel activity is 9729.58.

Question: And the running wheel activity (SOD1 transgenic mice [3]; riluzole 30 mg/kg, Weeks 13-16)?
Answer: Its running wheel activity is 7556.57.

Question: What about the running wheel activity (SOD1 transgenic mice [3]; riluzole 30 mg/kg, Weeks 17-20) of the same molecule?
Answer: Its running wheel activity is 7033.85.

Question: What about the running wheel activity (SOD1 transgenic mice [3]; riluzole 30 mg/kg, Weeks 21-24) of the same molecule?
Answer: The running wheel activity was 4687.05.

Question: And the running wheel activity (SOD1 transgenic mice [3]; riluzole 30 mg/kg, Weeks 25-28)?
Answer: Its running wheel activity is 2696.11.

Question: What about the running wheel activity (SOD1 transgenic mice [3]; riluzole 30 mg/kg, Weeks 29-36) of the same molecule?
Answer: Its running wheel activity is 1249.13.
